Source: EPA's ToxValDB 9.5 (doi:10.2903/j.efsa.2015.4024)

System: Rattus norvegicus
[1] = subchronic, duration: 90 days, oral, diet
[2] = subchronic, duration: 90 days, oral, gavage, M/F, Crj:CD, clinical signs

CSC(=O)c1ccco1 [2-Furancarbothioic acid, S-methyl ester]
NOAEL (subchronic, duration: 90 days, oral): 6.63 mg/kg-day

CCOC(=O)CCSCc1ccco1 [Ethyl 3-(furfurylthio)propionate]
NOEL (subchronic, duration: 90 days): 17 mg/kg-day

Cc1cc(SSc2cc(C)oc2C)c(C)o1 [Furan, 3,3'-dithiobis[2,5-dimethyl-]
NOEL [1]: 0.45 mg/kg-day

Cc1occc1SSSSc1ccoc1C [Bis(2-methyl-3-furyl) tetrasulfide]
NOEL (subchronic, duration: 90 days): 0.56 mg/kg-day

CC1OCCC1S (centres undefined) [Tetrahydro-2-methyl-3-furanthiol]
NOAEL [2]: 5 mg/kg-day

CC(=O)SC1=C(C)OCC1 [2-Methyl-3-thioacetoxy-4,5-dihydrofuran]
NOEL (chronic, duration: 1 years, oral, diet): 8.3 mg/kg-day

Cc1occc1SSc1ccoc1C [Bis(2-methyl-3-furyl)disulfide]
NOEL [1]: 0.45 mg/kg-day

Cc1cc(SC(=O)CC(C)C)c(C)o1 [2,5-Dimethyl-3-thioisovalerylfuran]
NOEL (subchronic, duration: 90 days): 0.73 mg/kg-day

CC1CC(S)C(C)O1 (centres undefined) [2,5-Dimethyltetrahydrofuran-3-thiol]
NOAEL [2]: 5 mg/kg-day
